Activity calls are given as the source filed them. The rule behind the calls is not given here.
What was measured:
[1] = target: T1, Prostaglandin G/H synthase 1 (Ovis aries) (UniProt P05979); test: Inhibition of ram seminal vesicle COX1 at 50 uM assessed as PGE2 concentration
T1 sequence (whole entry): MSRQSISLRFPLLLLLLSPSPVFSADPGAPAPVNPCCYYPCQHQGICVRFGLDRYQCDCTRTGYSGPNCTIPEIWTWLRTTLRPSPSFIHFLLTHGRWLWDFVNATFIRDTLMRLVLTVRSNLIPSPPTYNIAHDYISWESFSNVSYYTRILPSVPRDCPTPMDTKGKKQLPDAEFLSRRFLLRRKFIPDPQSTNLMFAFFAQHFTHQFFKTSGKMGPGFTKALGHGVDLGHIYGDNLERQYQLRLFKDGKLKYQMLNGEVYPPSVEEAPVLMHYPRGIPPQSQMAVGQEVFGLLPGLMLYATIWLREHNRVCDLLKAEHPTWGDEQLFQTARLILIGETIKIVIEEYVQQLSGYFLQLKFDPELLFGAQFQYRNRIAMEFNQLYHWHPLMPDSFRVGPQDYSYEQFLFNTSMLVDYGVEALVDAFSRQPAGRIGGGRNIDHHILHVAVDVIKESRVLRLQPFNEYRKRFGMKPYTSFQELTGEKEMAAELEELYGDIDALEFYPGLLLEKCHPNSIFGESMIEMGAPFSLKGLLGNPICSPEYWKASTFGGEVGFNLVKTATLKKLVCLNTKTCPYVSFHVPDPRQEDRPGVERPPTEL

[2] = target: T2, Prostaglandin G/H synthase 2 (Ovis aries) (UniProt P79208); test: Inhibition of ram seminal vesicle COX2 at 50 uM assessed as PGE2 level by EIA; format: tissue-based
T2 sequence (whole entry): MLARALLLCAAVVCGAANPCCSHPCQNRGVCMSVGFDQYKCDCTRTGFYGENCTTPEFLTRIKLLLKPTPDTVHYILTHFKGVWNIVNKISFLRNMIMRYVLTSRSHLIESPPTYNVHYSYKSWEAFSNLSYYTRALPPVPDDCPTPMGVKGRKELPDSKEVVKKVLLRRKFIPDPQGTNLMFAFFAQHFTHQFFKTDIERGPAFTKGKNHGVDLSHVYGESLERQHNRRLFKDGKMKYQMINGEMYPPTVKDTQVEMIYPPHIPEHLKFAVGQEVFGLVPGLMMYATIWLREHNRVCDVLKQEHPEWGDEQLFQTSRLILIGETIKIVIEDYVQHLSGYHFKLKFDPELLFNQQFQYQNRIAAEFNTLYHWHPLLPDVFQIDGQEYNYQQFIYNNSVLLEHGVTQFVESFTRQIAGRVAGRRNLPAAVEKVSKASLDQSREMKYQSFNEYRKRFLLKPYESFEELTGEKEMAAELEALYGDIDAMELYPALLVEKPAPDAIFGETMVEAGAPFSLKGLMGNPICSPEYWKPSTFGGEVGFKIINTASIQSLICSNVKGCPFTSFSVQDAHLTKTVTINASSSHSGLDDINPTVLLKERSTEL

[3] = target: T3, Polyunsaturated fatty acid 5-lipoxygenase (Homo sapiens) (UniProt P09917); test: Inhibition of 5-LOX-mediated LTB4 production from stimulated human neutrophile granulocytes at 50 uM after 10 mins by EIA
T3 sequence (whole entry): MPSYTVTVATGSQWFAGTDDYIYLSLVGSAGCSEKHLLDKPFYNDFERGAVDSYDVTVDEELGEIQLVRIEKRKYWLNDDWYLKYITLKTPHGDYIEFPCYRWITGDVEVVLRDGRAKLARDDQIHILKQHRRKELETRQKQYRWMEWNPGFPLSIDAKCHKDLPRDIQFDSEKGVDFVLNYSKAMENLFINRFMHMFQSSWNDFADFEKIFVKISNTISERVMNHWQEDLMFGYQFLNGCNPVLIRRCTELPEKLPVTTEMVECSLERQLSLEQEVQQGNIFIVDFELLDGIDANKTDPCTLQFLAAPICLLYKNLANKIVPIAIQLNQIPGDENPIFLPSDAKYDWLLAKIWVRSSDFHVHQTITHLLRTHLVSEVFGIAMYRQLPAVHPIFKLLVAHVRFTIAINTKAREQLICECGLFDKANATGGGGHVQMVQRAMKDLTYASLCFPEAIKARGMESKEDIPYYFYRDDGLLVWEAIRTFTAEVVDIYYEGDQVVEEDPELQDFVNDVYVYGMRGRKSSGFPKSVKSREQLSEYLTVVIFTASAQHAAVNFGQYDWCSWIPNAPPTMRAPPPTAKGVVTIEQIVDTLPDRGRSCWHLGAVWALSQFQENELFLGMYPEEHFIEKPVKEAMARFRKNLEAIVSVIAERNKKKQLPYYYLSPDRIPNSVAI

[4] = target: T4, Prostaglandin G/H synthase 2 (Ovis aries, UniProt P79208); test: Inhibition of sheep placental cotyledens COX2 assessed as PGE2 level by EIA
T4 sequence (P79208 whole entry): T2 sequence (whole entry)

[5] = target: T5, Polyunsaturated fatty acid 5-lipoxygenase (Homo sapiens, UniProt P09917); test: Inhibition of 5-LOX-mediated LTB4 production in stimulated human neutrophile granulocytes after 10 mins by EIA
T5 sequence (P09917 whole entry): T3 sequence (whole entry)

| inhibition [1] | inhibition [2] | inhibition [3] | IC50 [4] | IC50 [5] | Structure (SMILES) |
| --- | --- | --- | --- | --- | --- |
| inactive | inactive | inactive | – | – | COc1cc2c(c(OC)c1OC)-c1c(cc3c(c1OC)OCO3)C[C@H](C)[C@](C)(O)C2 |
| inactive | inactive | – | – | – | COc1cc2c(c(O)c1O)-c1c(cc(OC)c(O)c1O)C[C@](C)(O)[C@@H](C)C2 |
| inactive | inactive | inactive | – | – | COc1cc2c(c(OC)c1OC)-c1c(cc(OC)c(OC)c1OC)C[C@](C)(O)[C@@H](C)C2 |
| inactive | inactive | inactive | – | – | C/C=C(/C)C(=O)Oc1c(OC)c(OC)cc2c1-c1c(cc(OC)c(OC)c1OC)C[C@](C)(O)[C@@H](C)C2 |
| inactive | inactive | inactive | – | – | C/C=C(\C)C(=O)Oc1c(OC)c(OC)cc2c1-c1c(cc(OC)c(OC)c1OC)C[C@](C)(O)[C@@H](C)C2 |
| inactive | – | 37.3% | 32.1 µM | – | CC(O)C1(C)Cc2cc(O)c(O)c(O)c2-c2c(cc(O)c(O)c2O)C1 (stereo unspecified) |
| inactive | – | – | – | 4.5 µM | COc1cc2c(c(OC)c1OC)-c1c(cc(OC)c(OC)c1OC)CC(C)(C(C)I)C2 (stereo unspecified) |
| inactive | – | – | – | 4.2 µM | COc1cc2c(c(O)c1O)-c1c(cc(OC)c(O)c1O)CC(C)(C(C)O)C2 (stereo unspecified) |

From ChEMBL document CHEMBL1156986, “Derivatives of schisandrin with increased inhibitory potential on prostaglandin E(2) and leukotriene B(4) formation in vitro” (Bioorg Med Chem, 2010)
